For this assay, the target named is T1, human GPR139 (Homo sapiens, UniProt Q6DWJ6).
T1 construct: expressed in transfected cells; host or cells: CHO-TREx (Life Technologies) cells, expression induced with doxycycline
T1 sequence (Q6DWJ6 1-353): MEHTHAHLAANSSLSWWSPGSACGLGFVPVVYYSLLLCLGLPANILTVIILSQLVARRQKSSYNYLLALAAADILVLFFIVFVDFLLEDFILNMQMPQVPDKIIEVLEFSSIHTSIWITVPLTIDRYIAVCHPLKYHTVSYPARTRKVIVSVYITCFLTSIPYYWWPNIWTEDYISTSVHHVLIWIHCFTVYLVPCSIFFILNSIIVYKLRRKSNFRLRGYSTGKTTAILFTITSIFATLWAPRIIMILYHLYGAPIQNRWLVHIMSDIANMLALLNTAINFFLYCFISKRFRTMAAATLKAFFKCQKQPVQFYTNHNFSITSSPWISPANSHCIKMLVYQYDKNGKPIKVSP
Kind of assay: Inhibition rate of the amount of IP1 in GPR139-expressed CHO cells (inverse agonist assay, Test Example 2). It is filed as cell-based. Conditions: CHO, relative value, inhibition rate of Example Compound 2 in Test Example 1 defined as 100%. As for the experimental part:
The measurement of IP1 was made using an IP-ONE HTFR assay kit (cis-bio) and CHO-TREx (Life Technologies) cells stably transfected with GPR139. The CHO-TREx cells expressed human GPR139 with a tetracycline-inducing element. The cells were cultured in a medium containing F12K and 10% tetracycline-free FBS, and the expression of human GPR139 was induced over the course of 17 hours under conditions of 37° C. and 5% CO2 in the presence of 2 μg/mL of doxycycline (Clontech, 631311) in the growth medium on the day before assay. On the day of the test, after the cells were washed with 10 mL of PBS, the cells were detached with TrypLE Express (Life Technologies) and centrifuged at 1,000 rpm to form pellets, and a cell suspension was then prepared using a stimulation buffer (cis-bio, included in the IP-ONE HTRF assay kit).
The compound was diluted with the stimulation buffer, and 4 μL was added to a 384-well white assay plate (Greiner). The cell suspension was added so that there were 2000 cells per well, and the assay plate was left to stand for 40 minutes at 37° C. Equal amounts of IP1-d2 and Ab-Crp solutions (both available from cis-bio, included in the IP-ONE HTRF assay kit) prepared with a lysis buffer (cis-bio, included in the IP-ONE HTRF assay kit) were mixed, and 4 μL was added to the assay plate and left to stand for one hour at room temperature. After the fluorescence strengths of two wavelengths were measured by the HTRF settings of Envision (PerkinElmer), the value of Ratio={(Signal 665 nm)/(Signal 615 nm)}×10000 was calculated.
Measurement of the Inhibition Rate of the Amount of IP1 in GPR139-Expressed CHO Cells (Inverse Agonist Assay)
The activities of the compounds of Examples 1 and 3 to 167 were expressed as relative values in Table 2 by measuring the inhibition rate of the amount of IP1 with the same method as in Test Example 1 and defining the inhibition rate of the amount of IP1 of Example Compound 2 in Test Example 1 as […].
The inhibition is the relative decrease from the control value, in per cent. With `CCn1cc(Cn2c(C)c(C)n(-c3cc(C(F)(F)F)cc(OC[C@H]4CCCO4)n3)c2=O)cn1` [Example 114, 1-[(1-ethyl-1H-pyrazol-4-yl)methyl]-4,5-dimethyl-3-[6-{[(2R)-oxolan-2-yl]methoxy}-4-(trifluoromethyl)pyridin-2-yl]-1,3-dihydro-2H-imidazol-2-one], the inhibition at 30 µM turned out to be 103%.

As for `CC(C)n1cc(Cn2ccn(-c3cc(N4CCO[C@H](C)C4)cc(C(F)(F)F)c3F)c2=O)cn1` [Example 35, 1-{2-fluoro-5-[(2R)-2-methylmorpholin-4-yl]-3-(trifluoromethyl)phenyl}-3-{[1-(propan-2-yl)-1H-pyrazol-4-yl]methyl}-1,3-dihydro-2H-imidazol-2-one], the inhibition at 30 µM amounted to 99%.

Consider `CCn1cc(Cn2cc(C)n(-c3cc(OCC(F)(F)F)cc(N4CCO[C@H](C)C4)n3)c2=O)cn1` [Example 105, 1-[(1-ethyl-1H-pyrazol-4-yl)methyl]-4-methyl-3-{6-[(2R)-2-methylmorpholin-4-yl]-4-(2,2,2-trifluoroethoxy)pyridin-2-yl}-1,3-dihydro-2H-imidazol-2-one], for which the inhibition at 30 µM is 103%.

Take `CCn1cc(Cn2cc(C)n(-c3cc(Br)cc(N4CCO[C@H](C)C4)c3)c2=O)cn1` [Example 89, 3-{3-bromo-5-[(2R)-2-methylmorpholin-4-yl]phenyl}-1-[(1-ethyl-1H-pyrazol-4-yl)methyl]-4-methyl-1,3-dihydro-2H-imidazol-2-one]: the inhibition at 30 µM came to 101%.

With `CCn1cc(Cn2c(C)cn(-c3cc(N(C)C4CCOCC4)cc(C(F)(F)F)c3F)c2=O)cn1` [Example 53, 3-[(1-ethyl-1H-pyrazol-4-yl)methyl]-1-{2-fluoro-5-[methyl(oxan-4-yl)amino]-3-(trifluoromethyl)phenyl}-4-methyl-1,3-dihydro-2H-imidazol-2-one], the inhibition at 30 µM is 101%.

For `Cc1nn(-c2cc(N3CCO[C@H](C)C3)cc(OC(F)(F)F)c2F)c(=O)n1Cc1cnn(C(C)C)c1` [Example 159, 2-{2-fluoro-5-[(2R)-2-methylmorpholin-4-yl]-3-(trifluoromethoxy)phenyl}-5-methyl-4-{[1-(propan-2-yl)-1H-pyrazol-4-yl]methyl}-2,4-dihydro-3H-1,2,4-triazol-3-one], the inhibition at 30 µM was 99%.

`CC(C)n1cc(Cn2ccn(-c3nc(N4CCO[C@H](C)C4)cc(C(F)(F)F)c3F)c2=O)cn1` [Example 75, 1-{3-fluoro-6-[(2R)-2-methylmorpholin-4-yl]-4-(trifluoromethyl)pyridin-2-yl}-3-{[1-(propan-2-yl)-1H-pyrazol-4-yl]methyl}-1,3-dihydro-2H-imidazol-2-one]: the inhibition at 30 µM is 99%.

In the case of `CCn1cc(Cn2cc(C)n(-c3cc(OCC(F)F)cc(N4CCO[C@H](C)C4)c3)c2=O)cn1` [Example 71, 3-{3-(2,2-difluoroethoxy)-5-[(2R)-2-methylmorpholin-4-yl]phenyl}-1-[(1-ethyl-1H-pyrazol-4-yl)methyl]-4-methyl-1,3-dihydro-2H-imidazol-2-one], the inhibition at 30 µM is 98%.

Take `CC(C)n1cc(Cn2ccn(-c3cc(C(F)(F)F)cc(N4CCO[C@H](C)C4)n3)c2=O)cn1` [Example 102, 1-{6-[(2R)-2-methylmorpholin-4-yl]-4-(trifluoromethyl)pyridin-2-yl}-3-{[1-(propan-2-yl)-1H-pyrazol-4-yl]methyl}-1,3-dihydro-2H-imidazol-2-one]: the inhibition at 30 µM is 105%.

Take `CCn1cc(Cn2cc(C)n(-c3cc(C4CCC(F)(F)CC4)cc(C(F)(F)F)c3)c2=O)cn1` [Example 33, 3-[3-(4,4-difluorocyclohexyl)-5-(trifluoromethyl)phenyl]-1-[(1-ethyl-1H-pyrazol-4-yl)methyl]-4-methyl-1,3-dihydro-2H-imidazol-2-one]: the inhibition at 30 µM was found to be 100%.

On to `CCn1cc(Cn2cc(C)n(-c3cc(C(F)(F)F)nn3CCC3CCC3)c2=O)cn1` [Example 77, 3-[1-(2-cyclobutylethyl)-3-(trifluoromethyl)-1H-pyrazol-5-yl]-1-[(1-ethyl-1H-pyrazol-4-yl)methyl]-4-methyl-1,3-dihydro-2H-imidazol-2-one], for which the inhibition at 30 µM amounted to 100%.

Regarding `CCn1cc(Cn2cc(C)n(-c3cc(OC[C@@H]4CCCO4)cc(C(F)(F)F)c3F)c2=O)cn1` [Example 107, 1-[(1-ethyl-1H-pyrazol-4-yl)methyl]-3-[2-fluoro-5-{[(2S)-oxolan-2-yl]methoxy}-3-(trifluoromethyl)phenyl]-4-methyl-1,3-dihydro-2H-imidazol-2-one], the inhibition at 30 µM is 104%.

As for `CCn1cc(Cn2cc(C)n(-c3cc(-c4ccc(F)cc4)cc(C(F)(F)F)c3)c2=O)cn1` [Example 3, 1-[(1-ethyl-1H-pyrazol-4-yl)methyl]-3-[4′-fluoro-5-(trifluoromethyl)[1,1′-biphenyl]-3-yl]-4-methyl-1,3-dihydro-2H-imidazol-2-one], the inhibition at 30 µM was 101%.

On to `CCn1cc(Cn2cc(C)n(-c3cc(OCC4CC(F)(F)C4)cc(C(F)F)c3)c2=O)cn1` [Example 68, 3-{3-[(3,3-difluorocyclobutyl)methoxy]-5-(difluoromethyl)phenyl}-1-[(1-ethyl-1H-pyrazol-4-yl)methyl]-4-methyl-1,3-dihydro-2H-imidazol-2-one], for which the inhibition at 30 µM stood at 98%.

Regarding `CCn1cc(Cn2c(C)cn(-c3cc(N4CCOC(F)(F)C4)cc(C(F)(F)F)c3F)c2=O)cn1` [Example 54, 1-[5-(2,2-difluoromorpholin-4-yl)-2-fluoro-3-(trifluoromethyl)phenyl]-3-[(1-ethyl-1H-pyrazol-4-yl)methyl]-4-methyl-1,3-dihydro-2H-imidazol-2-one], the inhibition at 30 µM was determined as 101%.

Take `CCn1cc(Cn2ccn(-c3cc(N4CCOC(F)(F)C4)cc(C(F)(F)F)c3F)c2=O)cn1` [Example 40, 1-[5-(2,2-difluoromorpholin-4-yl)-2-fluoro-3-(trifluoromethyl)phenyl]-3-[(1-ethyl-1H-pyrazol-4-yl)methyl]-1,3-dihydro-2H-imidazol-2-one]: the inhibition at 30 µM amounted to 101%.

As for `Cc1cn(-c2cc(OC3CCOCC3)cc(C(F)(F)F)c2F)c(=O)n1Cc1cnn(C(C)C)c1` [Example 119, 1-{2-fluoro-5-[(oxan-4-yl)oxy]-3-(trifluoromethyl)phenyl}-4-methyl-3-{[1-(propan-2-yl)-1H-pyrazol-4-yl]methyl}-1,3-dihydro-2H-imidazol-2-one], the inhibition at 30 µM is 101%.

Turning to `CCc1cc(N2CCO[C@H](C)C2)cc(-n2cc(C)n(Cc3cnn(CC)c3)c2=O)c1F` [Example 81, 1-{3-ethyl-2-fluoro-5-[(2R)-2-methylmorpholin-4-yl]phenyl}-3-[(1-ethyl-1H-pyrazol-4-yl)methyl]-4-methyl-1,3-dihydro-2H-imidazol-2-one], the inhibition at 30 µM came to 98%.

On to `CCn1cc(Cn2ccn(-c3cc(OC[C@@H]4CCCO4)cc(C(F)(F)F)c3F)c2=O)cn1` [Example 118, 1-[(1-ethyl-1H-pyrazol-4-yl)methyl]-3-[2-fluoro-5-{[(2S)-oxolan-2-yl]methoxy}-3-(trifluoromethyl)phenyl]-1,3-dihydro-2H-imidazol-2-one], for which the inhibition at 30 µM was determined as 100%.

As to `CCn1cc(Cn2c(C)cn(-c3cc(N4CCO[C@H](C)C4)cc(OCC(F)(F)F)c3F)c2=O)cn1` [Example 55, 3-[(1-ethyl-1H-pyrazol-4-yl)methyl]-1-{2-fluoro-5-[(2R)-2-methylmorpholin-4-yl]-3-(2,2,2-trifluoroethoxy)phenyl}-4-methyl-1,3-dihydro-2H-imidazol-2-one], the inhibition at 30 µM was determined as 101%.

With `CCn1cc(Cn2c(C)cn(-c3nc(N4CCO[C@H](C)C4)cc(C(F)(F)F)c3Cl)c2=O)cn1` [Example 84, 1-{3-chloro-6-[(2R)-2-methylmorpholin-4-yl]-4-(trifluoromethyl)pyridin-2-yl}-3-[(1-ethyl-1H-pyrazol-4-yl)methyl]-4-methyl-1,3-dihydro-2H-imidazol-2-one], the inhibition at 30 µM amounted to 99%.

On to `CCn1cc(Cn2ccn(-c3cc(N4CCC(F)(F)CC4)cc(C4CC4(F)F)c3F)c2=O)cn1` (stereo not shown) [Example 156, 1-[3-(2,2-difluorocyclopropyl)-5-(4,4-difluoropiperidin-1-yl)-2-fluorophenyl]-3-[(1-ethyl-1H-pyrazol-4-yl)methyl]-1,3-dihydro-2H-imidazol-2-one], for which the inhibition at 30 µM turned out to be 98%.

The record behind these values is patent US12630534B2 (TAKEDA PHARMACEUTICAL COMPANY LIMITED, priority 2020, dated 2026).
